PMC10098953, “Genome Mining Enabled by Biosynthetic Characterization Uncovers a Class of Benzoxazolinate‐Containing Natural Products in Diverse Bacteria” (Angewandte Chemie (International Ed. in English), 2022)

Tested on: T1, PbzB
T1 construct: recombinant, His-SUMO-tag, expressed in and purified from E. coli BL21(DE3); homodimer (apo crystal structure)
Test: steady-state kinetics of 2-hydroxymethylserine formation (LC-MS)
Format: biochemical, Pseudomonas chlororaphis subsp. piscium
Conditions: cofactors PLP and 5,10-methylenetetrahydrofolate (mTHF); potassium phosphate buffer pH 7.5 (stated for the glycine assay; same condition for serine)

Row | Compound | Km [µM]
1 | N[C@H](CO)C(=O)O [D-serine] | 603 ± 56.7
2 | N[C@@H](CO)C(=O)O [L-serine] | 69.52 ± 0.03
